# Experimental data from patent publication US8815241B2, “Use of combination of anti-angiogenic substance and c-kit kinase inhibitor” (Eisai R&D Management Co., Ltd., priority 2005, dated 2014).
# System: Human gastrointestinal stromal tumor cell line GIST882
# Assay: Human cancer cell line subcutaneous xenograft model (GIST882 in nude mouse), combined use
# Assay type: in vivo
# Conditions: once a day, for two weeks, orally
# Method: Human gastrointestinal stromal tumor cell line GIST882 (supplied by The Brigham and Women's Hospital, Inc.) was cultured in RPMI1640 (containing 10% FBS) in a 5% carbon dioxide incubator to about 80% confluence. Following cultivation, each cell was collected by trypsin-EDTA treatment according to a general method. Using a phosphate buffer containing 50% matrigel, 5×10^7 cells/mL suspension was prepared, and 0.2 mL each of the resulting cell suspension was subcutaneously transplanted into the flank of a nude mouse. Starting from twenty-one days after the transplantation, 4-(3-chloro-4-(cyclopropylaminocarbonyl)aminophenoxy)-7-methoxy-6-quinolinecarboxamide (10 mg/kg or 30 mg/kg, once a day, for two weeks) and imatinib (160 mg/kg, twice a day, for two weeks) were orally administered alone or in combination. […] Tumor Volume (TV)=Major axis of tumor (mm)×(Minor axis of tumor)^2 (mm^2)/2 Relative Tumor Volume (RTV)=Tumor volume on measurement day/Tumor volume on the first administration day
structure (smiles),measurement,setting,value
"COc1cc2nccc(Oc3ccc(NC(=O)NC4CC4)c(Cl)c3)c2cc1C(N)=O [Compound A, 4-(3-chloro-4-(cyclopropylaminocarbonyl)aminophenoxy)-7-methoxy-6-quinolinecarboxamide]","Relative tumor volume on Day 15, Average ± standard deviation",Compound A 10 mg/kg alone,2.06 ± 0.16
same,"Relative tumor volume on Day 15, Average ± standard deviation",Compound A 30 mg/kg alone,1.36 ± 0.13
